Here are results for four compounds from BindingDB's records for doi:10.1021/jm070521y (Wyeth Research, 2007).

Assay [1] addresses T1, 5-hydroxytryptamine receptor 6 (Homo sapiens, UniProt P50406). In words: Radioligand Labeled Binding Assay. The conditions noted are these: pH 7.4; 22 °C. As for the experimental part: (§1) IC50 values for each test compound were determined from nonlinear regression analysis of data collected from ligand binding experiments. The inhibition constant (Ki) was calculated from IC50 value by the Cheng and Prusoff equation.

The target in assay [2] is T1, 5-hydroxytryptamine receptor 6. Briefly: Radioligand Labeled Binding Assay and cAMP Production. The conditions noted are these: pH 7.4; 22 °C. As for the experimental part: as §1

T1 sequence (P50406 whole entry): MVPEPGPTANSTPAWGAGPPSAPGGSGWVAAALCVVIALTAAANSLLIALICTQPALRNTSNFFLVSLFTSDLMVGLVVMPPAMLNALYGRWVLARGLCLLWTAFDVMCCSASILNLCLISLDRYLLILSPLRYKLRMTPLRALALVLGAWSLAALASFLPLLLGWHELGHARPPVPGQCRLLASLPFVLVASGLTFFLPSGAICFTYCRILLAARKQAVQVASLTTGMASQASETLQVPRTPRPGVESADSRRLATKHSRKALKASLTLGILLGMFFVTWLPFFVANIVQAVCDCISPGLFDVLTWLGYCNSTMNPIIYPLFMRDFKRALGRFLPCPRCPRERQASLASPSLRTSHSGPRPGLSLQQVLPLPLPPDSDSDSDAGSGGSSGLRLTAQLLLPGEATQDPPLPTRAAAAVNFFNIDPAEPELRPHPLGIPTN

Consider `NC(N)=NN=Cc1c[nH]c2ccc(Br)cc12` [3-[(E)-[(5-bromo-1H-indol-3-yl)methylidene]amino]guanidine], for which, in assay [1], the Ki (as a rule, a measure of affinity in units of concentration, obtained from inhibition or displacement) is 25 nM.

As for `COc1ccc(S(=O)(=O)n2cc(CCN)c3ccccc32)cc1OC` [2-{1-[(3,4-dimethoxybenzene)sulfonyl]-1H-indol-3-yl}ethan-1-amine], the EC50 (in general, the concentration giving half of the maximal effect) in assay [2] is 17.5 nM.

In assay [2], `Cc1nc(N)sc1S(=O)(=O)n1cc(CCN)c2ccccc21` [5-{[3-(2-aminoethyl)-1H-indole-1-]sulfonyl}-4-methyl-1,3-thiazol-2-amine] showed an EC50 of 9.6 nM and a Ki of 10 nM.

For the compound `CC(=NNC(=N)N)c1cn(S(=O)(=O)c2ccccc2)c2ccccc12` [3-[(E)-{1-[1-(benzenesulfonyl)-1H-indol-3-yl]ethylidene}amino]guanidine], the Ki in assay [1] was found to be 8 nM.
